In publication PMC10060354, “Discovery of a small molecule ligand of FRS2 that inhibits invasion and tumor growth” (Cellular Oncology, 2022):
Where two headings read alike, the source gives them in different places.

Key:
[1] = tested on: DAOY cells; experiment: Spheroid invasion assay (SIA), bFGF-induced collagen I invasion; type: cell-based, human; conditions: for EC50: DAOY cells, n = 3 technical replicas, read-out: EC50 for the inhibition of bFGF-induced collagen I invasion
Method: 1000—2500 cells/well in 100 μl were seeded in 96 well Corning® Spheroid microplate (CLS4520, Sigma-Aldrich) or in cell-repellent 96 well microplate (650,790, Greiner Bio-one). SIA and analysis was performed as described before. In brief: After spheroid formation (24 – 72 h after seeding), 70 µl medium was removed and replaced with the collagen mixture (2.5 mg/ml Pure Col Collagen I (Advanced Biomatrix)), DMEM 1x (from 10 × stock, Sigma, D2429) and 0.4% Sodium bicarbonate (Sigma, S8761)), resulting in a final collagen concentration of 1.75 mg/ml. Embedded spheroids were stimulated with bFGF (100 ng/ml if not otherwise stated), HGF (30 ng /ml) or EGF (20 ng/ml) and distance of invaded cells quantified 24 – 48 h after embedding. Compounds and BGJ398 were added in Dimethylsulfoxid (DMSO) and corresponding DMSO concentrations were used in control samples.

[2] = tested on: Caco-2 cells; experiment: CaCo-2 permeability (bi-directional); conditions: Direction A2B
Method: (§1) Caco-2 cells obtained from the ATCC were used between passage numbers 40—60. Cells were seeded onto Millipore Multiscreen Transwell plates at 1 × 10^5 cells/cm^2. The cells were cultured in DMEM and media was changed every two or three days. On day 20, the permeability study was performed. […] Cells were then incubated with HBSS at the desired pH in both apical and basolateral compartments for 40 min to stabilize physiological parameters.
(§2) The fluorescent integrity marker lucifer yellow was also included in the dosing solution. Analytical standards were prepared from test compound DMSO dilutions and transferred to buffer, maintaining a 1% v/v DMSO concentration.
(§3) For assessment of A-B permeability, HBSS was removed from the apical compartment and replaced with test compound dosing solution. The apical compartment insert was then placed into a companion plate containing fresh buffer (containing 1% v/v DMSO). For assessment of B-A permeability, HBSS was removed from the companion plate and replaced with test compound dosing solution. Fresh buffer (containing 1% v/v DMSO) was added to the apical compartment insert, which was then placed into the companion plate.
(§4) Compound permeability was assessed in duplicate. Compounds of known permeability characteristics were run as controls on each assay plate.
(§5) Test and control compounds were quantified by LC–MS/MS cassette analysis using a 7-point calibration with appropriate dilution of the samples. The starting concentration (C0) was determined from the dosing solution and the experimental recovery calculated from C0 and both apical and basolateral compartment concentrations. The integrity of the monolayer throughout the experiment was checked by monitoring lucifer yellow permeation using fluorimetric analysis.
(§6) The permeability coefficient (Papp) for each compound was calculated from the following equation: Papp=dQ/dtC0×A where dQ/dt was the rate of permeation of the drug across the cells, C0 was the donor compartment concentration at time zero and A was the area of the cell monolayer. C0 was obtained from analysis of the dosing solution.
(§7) Efflux ratio (ER) was calculated from mean A-B and B-A data. This was derived from: ER=Papp(B-A)Papp(A-B)

[3] = CaCo-2 permeability (bi-directional); conditions: human
Method: as §1, §2, §3, §4, §5, §6, §7

[4] = Cell viability (cytotoxicity, MTT) using HepG2; type: cell-based, human; conditions: human, HepG2 cells, 72 h, summary sheet, read-out: MTT (AC50) Conc at which 50% of maximum efficacy is reached
Method: (§8) HepG2 human hepatocellular carcinoma cells were plated on 96-well tissue culture polystyrene plates for 24 h prior to dosing of the cells. The shortlisted hits were diluted in DMSO and serial dilutions are made 1% DMSO in growth media. Compounds at 8 concentrations in triplicate was then incubated for 72 h. Appropriate blanks and controls were run alongside the assay. One h prior to the end of the incubation period, the cells were loaded with MTT [yellow; 3-(4,5-dimethyl-2-thiazolyl)-2,5-diphenyl-2H-tetrazolium bromide], the plates were dried and re-solubilized using DMSO. The plates were then scanned at 570 nm using a plate reader.
(§9) The minimum effective concentration was determined from the lowest concentration whose mean value exceeds the significance level, provided either a clear dose–response relationship was observed, or at least two consecutive concentration points were above the significance level.

[5] = tested on: HepG2 human hepatocellular carcinoma cells; experiment: Cell viability (cytotoxicity, MTT) using HepG2; type: cell-based
Method: as §8, §9

[6] = Semi-thermodynamic solubility; type: physicochemical; conditions: for solubility: Room Temp, Overnight, LC-MSMS
Method: In vitro ADME-T assays were performed by Cyprotex (Cyprotex Discovery, Cheshire, UK). […] The solution was agitated at ambient temperature overnight. The solutions were then centrifuged for 30 min at 3000 rpm at RT. The supernatant was removed and centrifuged for a further 30 min under the same conditions. An aliquot of the resulting supernatant was diluted in 50% methanol in water (containing an internal standard for MS analysis) prior to analysis by LC–MS/MS. […] These stocks were diluted in 50% methanol in water (containing an internal standard for MS analysis) prior to analysis by LC–MS/MS. The solubility of the shortlisted hits was calculated from a linear or quadratic fit of the standard curve.

[7] = Microsomal metabolic stability; type: in vitro ADME; conditions: human, pooled liver microsomes
Method: Pooled liver microsomes were purchased from Xenotech (H0500) and were stored according to manufacturer’s instructions prior to use. […] A minus co-factor control incubation was included for each compound tested where 0.1 M phosphate buffer pH 7.4 was added instead of NADPH. Two control compounds were included with each species. All incubations were performed singularly for each shortlisted hit. Each compound was incubated for 0, 5, 15, 30 and 45 min. The minus co-factor was incubated for 45 min only. The reactions were stopped by transferring incubate into acetonitrile at the appropriate time points in a 1:3 ratio. The termination plates were centrifuged at 3000 rpm for 20 min at 4 °C to precipitate the protein. Following protein precipitation, the supernatant were combined in cassette of up to 4 compounds, internal standard for MS analysis was added and samples were analyzed using LC–MS/MS. From a plot of In peak area ratio (compound peak area/internal standard peak area) against time, the gradient of the lines were determined. Subsequently, half-life and intrinsic clearance were calculated using the following equations. Eliminationrateconstant(k)=(-gradient)Half-life(t1/2)(min)=0.693/kIntrinsicclearance(CLint)(μl/min/mgprotein)=Vx0.693/t1/2 where V = Incubation volume (µl) / Microsomal protein (mg)

[8] = tested on: DMS114; experiment: Boyden chamber transwell migration assay; type: cell-based, human; conditions: 24 h
Method: Transwells with 5 μm pore size (83.3932.500; Sarstedt) were coated with 50 µl of 0.06 μg/μl Pure Col Collagen I (5005; Advanced BioMatrix) dissolved in 100% EtOH for a final concentration of 10 μg/cm^2. 10,000 – 15,000 cells were resuspended in serum-free medium or serum-free medium containing the appropriate treatment and seeded in the upper chamber of a 24 well plate containing the coated transwell. The lower chamber was filled with either serum-free medium or serum-free medium with bFGF (25 ng/ml). Transwell migration was allowed for 24 h (DMS114) or 48 h (HCT116) at 37 °C, 5% CO2. Inserts were washed twice with PBS and the remaining non-invading cells on the upper surface of the membrane were removed using a cotton swab. The cells were fixed in 4% paraformaldehyde (28908; Thermo Fisher Scientific) in PBS for 5 min at RT. Fixed cells were washed twice with PBS and stained with DAPI for 15 min at RT. Inserts were washed three times in PBS before images of DAPI-stained nuclei were acquired using a widefield Nikon Ti2 microscope at 40 × magnification. Nuclei were counted on the membrane areas using ImageJ software and plotted on Prism 9 software (GraphPad).

[9] = tested on: pFRS2Y436; experiment: IHC of pFRS2Y436 in SKOV3 flank tumor samples; type: in vivo, mice; conditions: SKOV3 model; end of treatment
Method: IHC of tumor sections was performed by Sophistolab (Muttenz, Switzerland) on a Lecia BondMax instrument using Refine HRP-Kits (Leica DS9800). All buffer-solutions were purchased from Lecia Microsystems Newcastle, Ltd and used according to the manufacturer’s guidelines. Paraffin-slides were de-waxed, pre-treated and incubated as follows: ER-solution 2 for 10 min at 95 °C, ER-solution 2 for 20 min at 100 °C and ER-solution 2 for 30 min at 100 °C. pFRS2; Rabbit anti-Phospho FRS2 (PhosphoY 436, Abcam Limited; ab193363), dilution 1:150; phospho-p44/42 MAPK (Erk1/2Thr202/Tyr204) Rabbit mAb (Cell Signaling Technology #4370), dilution 1:1600. The IHC images were captured digitally using a Nikon Epifluorescence Eclipse Ti2 equipped with a Nikon DS-Ri2 color and a Nikon DS-Qi2 monochrome camera.

[10] = tested on: ERK (pT202/Y204); experiment: Immunoblotting, ERK phosphorylation; type: cell-based, human; conditions: DAOY, SW780, M059K, SKOV3, AGS, DMS114 and RT-112 cells; 10 µM compound or 1 µM BGJ398
Method: (§10) Cells were serum starved o.n. and 10 µM compound or 1 µM (BGJ398) were added 3 h before stimulation with 100 ng/ml bFGF for 15 min. Cells were lysed in RIPA buffer containing protease inhibitor cocktail and lysates resolved by SDS-PAGE. Membranes were probed with primary antibodies against phospho-FRS2, FRS2, phospho-ERK1/2, ERK1/2, pAKT, AKT and tubulin. Integrated density of immuno-reactive bands was quantified using Adobe Photoshop CS3. Integrated densities of phospho bands relative to non-phospho bands of same protein were calculated and plotted as fold-change relative to untreated control conditions. Compounds and BGJ398 were added in DMSO and corresponding DMSO concentrations were used in control samples.

[11] = tested on: human cancer cell lines; experiment: CellTiter-Glo viability (2D culture or 3D spheroids), cell line panel; type: cell-based; conditions: SW780, RT-112, M059K and SKOV3 cells; 2.7 to 20 µM; 48 h
Method: Cell viability was determined using CellTiter-Glo® 2D or 3D cell viability assays (#G9242, #G9682, Promega). 500 cells/25 µl were seeded in flat bottom (#781,091, Greiner bio-one) or U-low adhesion (#4516, Corning) 384-well plate, 24 h prior to treatment. Increasing concentrations of compounds are deposited on cells using a HP Digital Drug Dispenser with DMSO total volume normalization. After 48 h, the CellTiter-Glo® 2D or 3D reagent was added (volume/volume) following manufacturer’s instructions. Plates were incubated at RT (room temperature) under agitation for 30 min and luminescence representing the number of viable cells was quantified with a Cytation 3 imaging reader (BioTek®). Experiments were performed independently three times with three technical replicas each.

[12] = tested on: FRS2 (Y436) phosphorylation; experiment: Immunoblotting, FRS2 phosphorylation; type: cell-based, human; conditions: RT-112 cells
Method: as §10

Structure (SMILES): Oc1cc(Cl)cc2c1NC(c1ccc(Cl)cc1)C1CC=CC21 (centres unmarked) [Compound 12]
- functional activity in SIA (result in words) ([1]; DAOY, bFGF-induced, 1, 5 and 10 µM): reduced invasion comparable to the parent compound 7
- Comments: A2B permeation (result in words) [2]: Test compound not detectable in receiver compartments A2B. High C0 value A2B and B2A. Recovery low B2A. Possible solubility or binding issues. Accuracy of result questionable.
- Papp B→A at 120 min, 10 μM ([3]; Caco-2, Mean Papp B-A, Caco-2, summary sheet): 7.53 ×10⁻⁶ cm/s
- recovery at 120 min, 10 µM ([3]; Caco-2, pH 7.4, Mean % Recovery A2B, HBSS/HBSS, pH 7.4/7.4): 51.5%
- recovery at 120 min, 10 µM ([3]; Caco-2, pH 7.4, Mean % Recovery B2A, HBSS/HBSS, pH 7.4/7.4): 14.4%
- Papp B→A at 120 min, 10 μM ([3]; Caco-2, pH 7.4, Mean Papp B2A, HBSS/HBSS, pH 7.4/7.4): 7.53 ×10⁻⁶ cm/s
- Papp B→A at 120 min, 10 μM ([3]; Caco-2, pH 7.4, Papp B2A Replicate 1, HBSS/HBSS, pH 7.4/7.4): 6.28 ×10⁻⁶ cm/s
- Papp B→A at 120 min, 10 μM ([3]; Caco-2, pH 7.4, Papp B2A Replicate 2, HBSS/HBSS, pH 7.4/7.4): 8.78 ×10⁻⁶ cm/s
- AC50 at 72 h [4]: 17500 nM
- MEC ([5]; 72h, 3 replicas, NR = No response (Summary sheet)): 9.85 µM
- MTT (MEC) Minimum effective concentration ([5]; 72 h, summary sheet): 9.85 µM
- solubility ([6]; PBS, aqueous buffer, thermodynamic from solid, read-out: Mean Solubility): < 1 µM
- solubility ([6]; PBS, aqueous buffer, thermodynamic from solid, read-out: Solubility Replicate 1): < 1 µM
- solubility ([6]; PBS, aqueous buffer, thermodynamic from solid, read-out: Solubility Replicate 3): < 1 µM
- solubility ([6]; PBS, aqueous buffer, thermodynamic from solid, read-out: Solubility Replicate 4): < 1 µM
- solubility thermodynamic ([6]; aqueous buffer, thermodynamic from solid, PBS, overnight, summary sheet): < 1 µM
- Solubility (class in words) ([6]; summary sheet): Very slightly
- half-life at 1 µM ([7]; pH 7.4, liver microsomes, read-out: t1/2): 2.5 min
- microsomal CLint at 1 µM ([7]; pH 7.4, read-out: Metabolic stability - Intrinsic clearance (CI)): 555 µL/min/mg

Structure (SMILES): CCN1CCN(c2ccc(Nc3cc(N(C)C(=O)Nc4c(Cl)c(OC)cc(OC)c4Cl)ncn3)cc2)CC1 [BGJ398, 3-(2,6-Dichloro-3,5-dimethoxy-phenyl)-1-{6-[4-(4-ethyl-piperazin-1-yl)-phenylamino]-pyrimidin-4-yl}-1-methyl-urea, reference compound]
- EC50 [1]: 470 nM
- EC50 ([1]; Homo sapiens, Daoy): 468 nM
- concentration at which significant reduction of transwell migration was observed [8]: 1 µM
- pFRS2 Y436 in tumor tissues by IHC (result in words) [9]: No clear difference in pFRS2 Y436
- basal and bFGF-induced phosphorylation of ERK (result in words) [10]: inhibited basal and bFGF-induced phosphorylation
- viability (result in words) [11]: reduced viability
- basal and bFGF-induced phosphorylation of FRS2Y436 (result in words) [12]: reduced basal and bFGF-induced phosphorylation
